# Residues, ends and D or L forms follow the SMILES beside them. *: point of attachment. βNA = c1ccc2cc(N*)ccc2c1
# Columns and labels:
# [1] = test system: Salmonella enterica subsp. enterica serovar Enteritidis; assay: Inhibition of AcrAB-TolC efflux pump in Salmonella enterica serovar enteritidis isolate 4931 assessed as fold increase in ciprofloxacin MIC relative to control
# [2] = test system: Salmonella enterica subsp. enterica serovar Enteritidis; assay: Inhibition of AcrAB-TolC efflux pump in Salmonella enterica serovar enteritidis isolate 58 assessed as fold increase in nalidixic acid MIC relative to controlphenylalanine-arginine-beta-naphthylamide
# [3] = test system: Salmonella enterica subsp. enterica serovar Enteritidis; assay: Inhibition of AcrAB-TolC efflux pump in Salmonella enterica serovar enteritidis isolate 104-cip assessed as fold increase in trimethoprim-sulfamethoxazole MIC relative to control
# [4] = test system: Salmonella enterica subsp. enterica serovar Enteritidis; assay: Inhibition of AcrAB-TolC efflux pump in Salmonella enterica serovar enteritidis isolate 104-cip assessed as fold increase in chloramphenicol MIC relative to control
# [5] = test system: Salmonella enterica subsp. enterica serovar Enteritidis; assay: Inhibition of AcrAB-TolC efflux pump in Salmonella enterica serovar enteritidis isolate 5408-cip assessed as fold increase in chloramphenicol MIC relative to control
# [6] = test system: Salmonella enterica subsp. enterica serovar Enteritidis; assay: Inhibition of AcrAB-TolC efflux pump in Salmonella enterica serovar enteritidis isolate 104 assessed as fold increase in ciprofloxacin MIC relative to control
# [7] = test system: Salmonella enterica subsp. enterica serovar Enteritidis; assay: Inhibition of AcrAB-TolC efflux pump in Salmonella enterica serovar enteritidis isolate 104-cip assessed as fold increase in tetracycline MIC relative to control
# [8] = test system: Salmonella enterica subsp. enterica serovar Enteritidis; assay: Inhibition of AcrAB-TolC efflux pump in ciprofloxacin-resistant Salmonella enterica serovar enteritidis isolate CUH48 assessed as fold increase in nalidixic acid MIC relative to control
# [9] = test system: Salmonella enterica subsp. enterica serovar Enteritidis; assay: Inhibition of AcrAB-TolC efflux pump in Salmonella enterica serovar enteritidis isolate 5408 assessed as fold increase in tetracycline MIC relative to control
# [10] = test system: Salmonella enterica subsp. enterica serovar Enteritidis; assay: Inhibition of AcrAB-TolC efflux pump in Salmonella enterica serovar enteritidis isolate 5408 assessed as fold increase in ampicillin MIC relative to control
# [11] = test system: Salmonella enterica subsp. enterica serovar Enteritidis; assay: Inhibition of AcrAB-TolC efflux pump in Salmonella enterica serovar enteritidis isolate 4931 assessed as fold increase in nalidixic acid MIC relative to control
# [12] = test system: Salmonella enterica subsp. enterica serovar Enteritidis; assay: Inhibition of AcrAB-TolC efflux pump in Salmonella enterica serovar enteritidis isolate CUH52 assessed as fold increase in ciprofloxacin MIC relative to control
# [13] = test system: Salmonella enterica subsp. enterica serovar Enteritidis; assay: Inhibition of AcrAB-TolC efflux pump in Salmonella enterica serovar enteritidis isolate 5408 assessed as fold increase in nalidixic acid MIC relative to control
# [14] = test system: Salmonella enterica subsp. enterica serovar Enteritidis; assay: Inhibition of AcrAB-TolC efflux pump in Salmonella enterica serovar enteritidis isolate 54 assessed as fold increase in ciprofloxacin MIC relative to control
# [15] = test system: Salmonella enterica subsp. enterica serovar Enteritidis; assay: Inhibition of AcrAB-TolC efflux pump in Salmonella enterica serovar enteritidis isolate 5408 assessed as fold increase in ciprofloxacin MIC relative to control
# [16] = test system: Salmonella enterica subsp. enterica serovar Enteritidis; assay: Inhibition of AcrAB-TolC efflux pump in Salmonella enterica serovar enteritidis isolate 104-cip assessed as fold increase in ciprofloxacin MIC relative to control
# [17] = test system: Salmonella enterica subsp. enterica serovar Enteritidis; assay: Inhibition of AcrAB-TolC efflux pump in Salmonella enterica serovar enteritidis isolate CUH60 assessed as fold increase in nalidixic acid MIC relative to control
# [18] = test system: Salmonella enterica subsp. enterica serovar Enteritidis; assay: Inhibition of AcrAB-TolC efflux pump in Salmonella enterica serovar enteritidis isolate 104 assessed as fold increase in chloramphenicol MIC relative to control
# [19] = test system: Salmonella enterica subsp. enterica serovar Enteritidis; assay: Inhibition of AcrAB-TolC efflux pump in Salmonella enterica serovar enteritidis isolate 5408 assessed as fold increase in trimethoprim-sulfamethoxazole MIC relative to control
# [20] = test system: Salmonella enterica subsp. enterica serovar Enteritidis; assay: Inhibition of AcrAB-TolC efflux pump in Salmonella enterica serovar enteritidis isolate CUH52 assessed as fold increase in nalidixic acid MIC relative to control
# [21] = test system: Salmonella enterica subsp. enterica serovar Enteritidis; assay: Inhibition of AcrAB-TolC efflux pump in Salmonella enterica serovar enteritidis isolate 58 assessed as fold increase in ciprofloxacin MIC relative to controlphenylalanine-arginine-beta-naphthylamide
# [22] = test system: Salmonella enterica subsp. enterica serovar Enteritidis; assay: Inhibition of AcrAB-TolC efflux pump in Salmonella enterica serovar enteritidis isolate NCTC 13349 assessed as fold increase in nalidixic acid MIC relative to control
# [23] = test system: Salmonella enterica subsp. enterica serovar Enteritidis; assay: Inhibition of AcrAB-TolC efflux pump in Salmonella enterica serovar enteritidis isolate 104 assessed as fold increase in nalidixic acid MIC relative to control
# [24] = test system: Salmonella enterica subsp. enterica serovar Enteritidis; assay: Inhibition of AcrAB-TolC efflux pump in Salmonella enterica serovar enteritidis isolate 5408-cip assessed as fold increase in nalidixic acid MIC relative to control
# [25] = test system: Salmonella enterica subsp. enterica serovar Enteritidis; assay: Inhibition of AcrAB-TolC efflux pump in Salmonella enterica serovar enteritidis isolate 5408-cip assessed as fold increase in ampicillin MIC relative to control
# [26] = test system: Salmonella enterica subsp. enterica serovar Enteritidis; assay: Inhibition of AcrAB-TolC efflux pump in Salmonella enterica serovar enteritidis isolate CUH60 assessed as fold increase in ciprofloxacin MIC relative to control
# [27] = test system: Salmonella enterica subsp. enterica serovar Enteritidis; assay: Inhibition of AcrAB-TolC efflux pump in Salmonella enterica serovar enteritidis isolate 51 assessed as fold increase in nalidixic acid MIC relative to control
# [28] = test system: Salmonella enterica subsp. enterica serovar Enteritidis; assay: Inhibition of AcrAB-TolC efflux pump in Salmonella enterica serovar enteritidis isolate NCTC 13349 assessed as fold increase in ciprofloxacin MIC relative to control
# [29] = test system: Salmonella enterica subsp. enterica serovar Enteritidis; assay: Inhibition of AcrAB-TolC efflux pump in Salmonella enterica serovar enteritidis isolate 5408-cip assessed as fold increase in ciprofloxacin MIC relative to control
# [30] = test system: Salmonella enterica subsp. enterica serovar Enteritidis; assay: Inhibition of AcrAB-TolC efflux pump in Salmonella enterica serovar enteritidis isolate 104 assessed as fold increase in trimethoprim-sulfamethoxazole MIC relative to control
# [31] = test system: Salmonella enterica subsp. enterica serovar Enteritidis; assay: Inhibition of AcrAB-TolC efflux pump in Salmonella enterica serovar enteritidis isolate 104-cip assessed as fold increase in ampicillin MIC relative to control
# [32] = test system: Salmonella enterica subsp. enterica serovar Enteritidis; assay: Inhibition of AcrAB-TolC efflux pump in Salmonella enterica serovar enteritidis isolate 104 assessed as fold increase in tetracycline MIC relative to control
# [33] = test system: Salmonella enterica subsp. enterica serovar Enteritidis; assay: Inhibition of AcrAB-TolC efflux pump in Salmonella enterica serovar enteritidis isolate 5408-cip assessed as fold increase in trimethoprim-sulfamethoxazole MIC relative to control
# [34] = test system: Salmonella enterica subsp. enterica serovar Enteritidis; assay: Inhibition of AcrAB-TolC efflux pump in Salmonella enterica serovar enteritidis isolate 54 assessed as fold increase in nalidixic acid MIC relative to control
# [35] = test system: Salmonella enterica subsp. enterica serovar Enteritidis; assay: Inhibition of AcrAB-TolC efflux pump in Salmonella enterica serovar enteritidis isolate 5408-cip assessed as fold increase in tetracycline MIC relative to control
# [36] = test system: Salmonella enterica subsp. enterica serovar Enteritidis; assay: Inhibition of AcrAB-TolC efflux pump in Salmonella enterica serovar enteritidis isolate 5408 assessed as fold increase in chloramphenicol MIC relative to control
# [37] = test system: Salmonella enterica subsp. enterica serovar Enteritidis; assay: Inhibition of AcrAB-TolC efflux pump in Salmonella enterica serovar enteritidis isolate 104-cip assessed as fold increase in nalidixic acid MIC relative to control
# [38] = test system: Salmonella enterica subsp. enterica serovar Enteritidis; assay: Inhibition of AcrAB-TolC efflux pump in Salmonella enterica serovar enteritidis isolate 104 assessed as fold increase in ampicillin MIC relative to control
# [39] = test system: Salmonella enterica subsp. enterica serovar Enteritidis; assay: Inhibition of AcrAB-TolC efflux pump in Salmonella enterica serovar enteritidis isolate 51 assessed as fold increase in ciprofloxacin MIC relative to control
# [40] = test system: Salmonella enterica subsp. enterica serovar Enteritidis; assay: Inhibition of AcrAB-TolC efflux pump in ciprofloxacin-resistant Salmonella enterica serovar enteritidis isolate CUH48 assessed as fold increase in ciprofloxacin MIC relative to control
smiles,measurement,setting,value
N=C(N)NCCC[C@H](NC(=O)[C@@H](N)Cc1ccccc1)C(=O)Nc1ccc2ccccc2c1 (H-Phe-Arg-βNA),Activity,[1],0.064 µg/mL
same,Activity,[2],24 µg/mL
same,Activity,[3],0.023 µg/mL
same,Activity,[4],1 µg/mL
same,Activity,[5],0.38 µg/mL
same,Activity,[6],0.094 µg/mL
same,Activity,[7],3 µg/mL
same,MIC,[8],0.5 µg/mL
same,Activity,[9],0.19 µg/mL
same,Activity,[10],1 µg/mL
same,Activity,[11],16 µg/mL
same,Activity,[12],0.008 µg/mL
same,Activity,[13],24 µg/mL
same,Activity,[14],0.064 µg/mL
same,Activity,[15],0.094 µg/mL
same,Activity,[16],2 µg/mL
same,Activity,[17],32 µg/mL
same,Activity,[18],0.75 µg/mL
same,Activity,[19],0.023 µg/mL
same,Activity,[20],0.75 µg/mL
same,Activity,[21],0.064 µg/mL
same,Activity,[22],0.38 µg/mL
same,Activity,[23],24 µg/mL
same,Activity,[24],16 µg/mL
same,Activity,[25],2 µg/mL
same,Activity,[26],0.094 µg/mL
same,Activity,[27],32 µg/mL
same,Activity,[28],0.008 µg/mL
same,Activity,[29],2 µg/mL
same,Activity,[30],0.023 µg/mL
same,Activity,[31],1 µg/mL
same,Activity,[32],0.19 µg/mL
same,Activity,[33],0.032 µg/mL
same,Activity,[34],16 µg/mL
same,Activity,[35],0.094 µg/mL
same,Activity,[36],0.5 µg/mL
same,Activity,[37],256 µg/mL
same,Activity,[38],0.75 µg/mL
same,Activity,[39],0.094 µg/mL
same,MIC,[40],0.012 µg/mL

# Source: ChEMBL document CHEMBL1629649, “Multiple regulatory pathways associated with high-level ciprofloxacin and multidrug resistance in Salmonella enterica serovar enteritidis: involvement of RamA and other global regulators” (2009)
